From article PMC11036396 (2024)

Key:
[1] = test system: Trp aptamer (Cy5-labelled, Trp aptamer sensor) (DNA, aptamer) AGCACGTTGGTTAGGTCAGGTTTGGGTTTCGTGC; test: strand-displacement fluorescence; conditions: 2.7 mM KCl, 5 mM MgCl2, 500 mM NaCl
[2] = test system: Trp aptamer (Cy5-labelled, Trp aptamer sensor) (DNA, aptamer) AGCACGTTGGTTAGGTCAGGTTTGGGTTTCGTGC; test: strand-displacement fluorescence titration (Langmuir fit); conditions: 2.7 mM KCl, 5 mM MgCl2, 500 mM NaCl; TAB pH 7.4, 25 °C; displaces CS-10-BHQ2 quencher strand; 0.5 μM aptamer, 1.25 μM CS-10; apparent
[3] = TAB pH 7.4, displaces CS-10-BHQ2 quencher strand, distinguished from its precursor

N[C@@H](Cc1ccccc1)C(=O)O
binding ([1]; TAB pH 7.4, 25 °C, CS-10-BHQ2 quencher strand, highest concentration 5 mM): no

N[C@@H](Cc1c[nH]c2ccccc12)C(=O)O
Ksens [2]: 3.3 [2.8–4.6, 95% credible region] mM

N[C@H](Cc1c[nH]c2ccccc12)C(=O)O
binding ([1]; TAB pH 7.4, 25 °C, displaces CS-10-BHQ2 quencher strand, 5 mM compound): yes

N[C@@H](Cc1c[nH]c2ccc(F)cc12)C(=O)O
binding [1, 3]: yes

COc1ccc2[nH]cc(C[C@H](N)C(=O)O)c2c1
binding [1, 3]: yes
